The assay concerns the target T1, human capsaicin receptor (VR1) (Homo sapiens, UniProt Q8NER1).
T1 construct: transfected with the pBK-CMV expression construct encoding the full length human capsaicin receptor; expressed in transfected cells
The assay is described as follows: Capsaicin receptor binding assay ([3H]RTX competition). The note with it: read-out: Ki. An excerpt:
This Example illustrates the preparation of VR1-transfected cells and membrane preparations for use in binding assays (Example 5) and functional assays (Example 6).
A cDNA encoding full length human capsaicin receptor (SEQ ID NO: 1, 2 or 3 of U.S. Pat. No. 6,482,611) was subcloned in the plasmid pBK-CMV (Stratagene, La Jolla, Calif.) for recombinant expression in mammalian cells.
Human embryonic kidney (HEK293) cells were transfected with the pBK-CMV expression construct encoding the full length human capsaicin receptor using standard methods. The transfected cells were selected for two weeks in media containing G418 ([…]) to obtain a pool of stably transfected cells. Independent clones were isolated from this pool by limiting dilution to obtain clonal stable cell lines for use in subsequent experiments.
For radioligand binding experiments, cells were seeded in T175 cell culture flasks in media without antibiotics and grown to approximately 90% confluency. The flasks were then washed with PBS and harvested in PBS containing 5 mM EDTA. The cells were pelleted by gentle centrifugation and stored at −80° C. until assayed.
Previously frozen cells were disrupted with the aid of a tissue homogenizer in ice-cold HEPES homogenization buffer (5mM KCl 5, 5.8 mM NaCl, 0.75 mM CaCl2, 2 mM MgCl2, 320 mM sucrose, and 10 mM HEPES pH 7.4). Tissue homogenates were first centrifuged for 10 minutes at 1000×g (4° C.) to remove the nuclear fraction and debris, and then the supernatant from the first centrifugation is further centrifuged for 30 minutes at 35,000×g (4° C.) to obtain a partially purified membrane fraction. Membranes were resuspended in the HEPES homogenization buffer prior to the assay. An aliquot of this membrane homogenate is used to determine protein concentration via the Bradford method (BIO-RAD Protein Assay Kit, #500-0001, BIO-RAD, Hercules, Calif.).
This Example illustrates a representative assay of capsaicin receptor binding that may be used to determine the binding affinity of compounds for the capsaicin (VR1) receptor.
Binding studies with [^3H] Resiniferatoxin (RTX) are carried out essentially as described by Szallasi and Blumberg (1992) J. Pharmacol. Exp. Ter. 262: 883-888. In this protocol, non-specific RTX binding is reduced by adding bovine alpha, acid glycoprotein (100 μg per tube) after the binding reaction has been terminated.
[^3H] RTX (37 Ci/mmol) is synthesized by and obtained from the Chemical Synthesis and Analysis Laboratory, National Cancer Institute-Frederick Cancer Research and Development Center, Frederick, Md. [^3H] RTX may also be obtained from commercial vendors (e.g., Amersham Pharmacia Biotech, Inc.; Piscataway, N.J.).
The membrane homogenate of Example 4 is centrifuged as before and resuspended to a protein concentration of 333 μg/ml in homogenization buffer. Binding assay mixtures are set up on ice and contain [^3H]JRTX (specific activity 2200 mCi/ml), 2 μl non-radioactive test compound, 0.25 mg/ml bovine serum albumin (Cohn fraction V), and 5×10^4−1×10^5 VR1-transfected cells. The final volume is adjusted to 500 μl (for competition binding assays) or 1,000 μl (for saturation binding assays) with the ice-cold HEPES homogenization buffer solution (pH 7.4) described above. Non-specific binding is defined as that occurring in the presence of 1 μM non-radioactive RTX (Alexis Corp.; San Diego, Calif.). For saturation binding, [^3H]RTX is added in the concentration range of […], using 1 to 2 dilutions. Typically 11 concentration points are collected per saturation binding curve.
Competition binding assays are performed in the presence of 60 pM [^3H]RTX and various concentrations of test compound. The binding reactions are initiated by transferring the assay mixtures into a 37° C. water bath and are terminated following a 60 minute incubation period by cooling the tubes on ice.

Where only a bound is given, the exact number is not on record here.

T1 sequence (Q8NER1 whole entry): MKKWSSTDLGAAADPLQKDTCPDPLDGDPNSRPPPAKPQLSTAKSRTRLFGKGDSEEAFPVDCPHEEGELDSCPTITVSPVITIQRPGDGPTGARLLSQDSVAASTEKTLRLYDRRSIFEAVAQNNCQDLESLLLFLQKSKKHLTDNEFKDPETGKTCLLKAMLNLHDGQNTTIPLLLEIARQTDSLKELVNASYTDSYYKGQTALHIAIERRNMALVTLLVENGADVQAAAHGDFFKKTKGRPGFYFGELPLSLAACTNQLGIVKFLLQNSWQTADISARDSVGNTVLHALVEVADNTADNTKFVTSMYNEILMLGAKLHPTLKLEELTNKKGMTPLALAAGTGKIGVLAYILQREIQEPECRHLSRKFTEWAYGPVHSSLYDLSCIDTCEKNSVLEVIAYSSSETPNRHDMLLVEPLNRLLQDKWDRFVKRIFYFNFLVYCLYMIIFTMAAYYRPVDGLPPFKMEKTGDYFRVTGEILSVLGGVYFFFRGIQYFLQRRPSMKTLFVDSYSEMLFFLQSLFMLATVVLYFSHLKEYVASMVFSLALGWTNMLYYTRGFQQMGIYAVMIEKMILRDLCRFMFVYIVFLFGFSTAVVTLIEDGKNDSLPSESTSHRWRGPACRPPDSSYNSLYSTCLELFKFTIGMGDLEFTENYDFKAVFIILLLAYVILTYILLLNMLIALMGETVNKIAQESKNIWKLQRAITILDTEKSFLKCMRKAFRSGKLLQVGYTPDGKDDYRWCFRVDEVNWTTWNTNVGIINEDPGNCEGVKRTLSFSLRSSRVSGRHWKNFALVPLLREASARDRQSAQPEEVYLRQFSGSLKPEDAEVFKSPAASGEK

For `CC(C)(C)c1ccc(NC(=O)c2ccc(-c3ccccc3Cl)cn2)cc1` [Compound 40, 5-(2-Chloro-phenyl)-pyridine-2-carboxylic acid (4-tert-butyl-phenyl)-amide], the Ki is < 1000 nM.

For `Cc1ccc(C)c(-c2ccc(C(=O)Nc3ccc(C(F)(F)F)cc3)cn2)c1` [Compound 56, 6-(2,5-Dimethyl-phenyl)-N-(4-trifluoromethyl-phenyl)-nicotinamide], the Ki was < 1000 nM.

As for `CC(=O)c1ccccc1-c1ccc(C(=O)Nc2ccc(C(C)(C)C)cc2)cn1` [Compound 60, 6-(2-Acetyl-phenyl)-N-(4-tert-butyl-phenyl)-nicotinamide], the Ki is < 1000 nM.

In the case of `CC(C)(C)c1ccc(NC(=O)c2ccc(-c3ccccc3N)nc2)cc1` [Compound 61, 6-(2-Amino-phenyl)-N-(4-tert-butyl-phenyl)-nicotinamide], the inhibitory constant (Ki) was < 1000 nM.

With `O=C(Nc1ccccc1C(F)(F)F)c1ccc(-c2ccccc2Cl)nc1` [Compound 64, 6-(2-Chloro-phenyl)-N-(2-trifluoromethyl-phenyl)-nicotinamide], the Ki is < 1000 nM.

For the compound `CCCc1ccc(NC(=O)c2ccc(-c3ccccc3Cl)nc2)cc1` [Compound 77, 6-(2-Chloro-phenyl)-N-(4-propyl-phenyl)-nicotinamide], the Ki was < 1000 nM.

With `O=C(Nc1ccc(C(F)(F)F)cc1)c1ccc(-c2ccccc2Cl)nc1` [Compound 78, 6-(2-Chloro-phenyl)-N-(4-trifluoromethyl-phenyl)-nicotinamide], the Ki is < 1000 nM.

In the case of `O=C(Nc1ccccc1)c1ccc(-c2ccccc2Cl)nc1` [Compound 81, 6-(2-Chloro-phenyl)-N-phenyl-nicotinamide], the Ki was < 1000 nM.

In the case of `O=C(Nc1cnc2ccccc2c1)c1ccc(-c2ccccc2Cl)nc1` [Compound 82, 6-(2-Chloro-phenyl)-N-quinolin-3-yl-nicotinamide], the Ki was < 1000 nM.

On to `Cc1nc2cc(NC(=O)c3ccc(-c4ccccc4F)nc3)ccc2s1` [Compound 85, 6-(2-Fluoro-phenyl)-N-(2-methyl-benzothiazol-5-yl)-nicotinamide], for which the Ki was < 1000 nM.

`COc1cccc(NC(=O)c2ccc(-c3ccccc3F)nc2)c1` [Compound 87, 6-(2-Fluoro-phenyl)-N-(3-methoxy-phenyl)-nicotinamide]: the Ki was < 1000 nM.

For the compound `O=C(Nc1cccc(C(F)(F)F)c1)c1ccc(-c2ccccc2F)nc1` [Compound 88, 6-(2-Fluoro-phenyl)-N-(3-trifluoromethyl-phenyl)-nicotinamide], the Ki is < 1000 nM.

For the compound `CC(C)c1ccc(NC(=O)c2ccc(-c3ccccc3F)nc2)cc1` [Compound 89, 6-(2-Fluoro-phenyl)-N-(4-isopropyl-phenyl)-nicotinamide], the Ki was < 1000 nM.

`CCCc1ccc(NC(=O)c2ccc(-c3ccccc3F)nc2)cc1` [Compound 91, 6-(2-Fluoro-phenyl)-N-(4-propyl-phenyl)-nicotinamide]: the Ki is < 1000 nM.

`O=C(Nc1ccc(C(F)(F)F)cc1)c1ccc(-c2ccccc2F)nc1` [Compound 92, 6-(2-Fluoro-phenyl)-N-(4-trifluoromethyl-phenyl)-nicotinamide]: the Ki is < 1000 nM.

Turning to `O=C(Nc1ccc2c(c1)CCC2)c1ccc(-c2ccccc2F)nc1` [Compound 93, 6-(2-Fluoro-phenyl)-N-indan-5-yl-nicotinamide], the Ki is < 1000 nM.

Turning to `COc1ccccc1-c1ccc(C(=O)Nc2ccc(C(F)(F)F)cc2)cn1` [Compound 99, 6-(2-Methoxy-phenyl)-N-(4-trifluoromethyl-phenyl)-nicotinamide], the Ki was < 1000 nM.

On to `Cc1ccc(-c2ccc(C(=O)Nc3ccc4c(c3)CCC4)cn2)cc1C` [Compound 109, 6-(3,4-Dimethyl-phenyl)-N-indan-5-yl-nicotinamide], for which the Ki was < 1000 nM.

For `Cc1cc(C)cc(-c2ccc(C(=O)Nc3ccc(C)c(F)c3)cn2)c1` [Compound 110, 6-(3,5-Dimethyl-phenyl)-N-(3-fluoro-4-methyl-phenyl)-nicotinamide], the Ki is < 1000 nM.

Consider `O=C(Nc1ccc2c(c1)CCC2)c1ccc(-c2cccc(Cl)c2)nc1` [Compound 116, 6-(3-Chloro-phenyl)-N-indan-5-yl-nicotinamide], for which the Ki was < 1000 nM.

With `CCOc1cccc(-c2ccc(C(=O)Nc3ccc4sc(C)nc4c3)cn2)c1` [Compound 119, 6-(3-Ethoxy-phenyl)-N-(2-smethyl-benzothiazol-5-yl)-nicotinamide], the Ki is < 1000 nM.

Regarding `CCOc1cccc(-c2ccc(C(=O)Nc3ccc(C)c(F)c3)cn2)c1` [Compound 120, 6-(3-Ethoxyphenyl)-N-(3-fluoro-4-methyl-phenyl)-nicotinamide], the Ki is < 1000 nM.

Turning to `CCOc1cccc(-c2ccc(C(=O)Nc3ccc4c(c3)CCC4)cn2)c1` [Compound 124, 6-(3-Ethoxy-phenyl)-N-indan-5-yl-nicotinamide], the Ki was < 1000 nM.

Consider `Cc1nc2cc(NC(=O)c3ccc(-c4cccc(F)c4)nc3)ccc2s1` [Compound 125], for which the Ki was < 1000 nM.

On to `COc1cccc(NC(=O)c2ccc(-c3cccc(F)c3)nc2)c1` [Compound 126, 6-(3-Fluoro-phenyl)-N-(3-methoxy-phenyl)-nicotinamide], for which the Ki is < 1000 nM.

On to `CC(C)c1ccc(NC(=O)c2ccc(-c3cccc(F)c3)nc2)cc1` [Compound 127, 6-(3-Fluoro-phenyl)-N-(4-isopropyl-phenyl)-nicotinamide], for which the Ki is < 1000 nM.

As for `O=C(Nc1ccc2c(c1)CCC2)c1ccc(-c2cccc(F)c2)nc1` [Compound 129, 6-(3-Fluoro-phenyl)-N-indan-5-yl-nicotinamide], the Ki was < 1000 nM.

For `Cc1nc2cc(NC(=O)c3ccc(-c4cccc(C(C)C)c4)nc3)ccc2s1` [Compound 130, 6-(3-Isopropyl-phenyl)-N-(2-methyl-benzothiazol-5-yl)-nicotinamide], the Ki was < 1000 nM.

For `COc1cccc(NC(=O)c2ccc(-c3cccc(C(C)C)c3)nc2)c1` [Compound 131, 6-(3-Isopropyl-phenyl)-N-(3-methoxy-phenyl)-nicotinamide], the Ki was < 1000 nM.

Regarding `O=C(Nc1ccc(C(F)(F)F)cc1)c1ccc(-c2cccc(OC(F)(F)F)c2)nc1` [Compound 135, N-(4-Trifluoromethyl-phenyl)-6-(3-Trifluoromethoxy-phenyl)-nicotinamide], the Ki is < 1000 nM.

Take `CCCCc1ccc(-c2ccc(C(=O)Nc3cccc(OC)c3)cn2)cc1` [Compound 137, 6-(4-Butyl-phenyl)-N-(3-methoxy-phenyl)-nicotinamide]: the Ki is < 1000 nM.

Consider `COc1cccc(NC(=O)c2ccc(-c3ccc(C(C)C)cc3)nc2)c1` [Compound 147, 6-(4-Isopropyl-phenyl)-N-(3-methoxy-phenyl)-nicotinamide], for which the Ki was < 1000 nM.

In the case of `CCCc1ccc(NC(=O)c2ccc(-c3cc(Cl)ccc3OC)nc2)cc1` [Compound 157, 6-(5-Chloro-2-methoxy-phenyl)-N-(4-propyl-phenyl)-nicotinamide], the Ki was < 1000 nM.

As for `Cc1nc(-c2ncccc2C(F)(F)F)ccc1C(=O)Nc1ccc(C(F)(F)F)cc1` [Compound 181, 6-Methyl-3′-trifluoromethyl-[2,2′]bipyridinyl-5-carboxylic acid (4-trifluoromethyl-phenyl)-amide], the Ki is < 1000 nM.

On to `Cc1ccccc1-c1ccc(C(=O)Nc2ccc(C(F)(F)F)cc2)cn1` [Compound 185, 6-o-Tolyl-N-(4-trifluoromethyl-phenyl)-nicotinamide], for which the Ki was < 1000 nM.

Turning to `COc1cc(NC(=O)c2ccc(-c3ccccc3)cc2)ccc1Cl` [Compound 189, Biphenyl-4-carboxylic acid (4-chloro-3-methoxy-phenyl)-amide], the Ki was < 1000 nM.

For the origin of these results see patent publication US20060100245A1, “Substituted biphenyl-4-carboxylic acid arylamide analogues” (Neurogen Corporation, priority 2002, published 2006).
